{"source": "patent US20260041617A1", "about": "“COSMETIC COMPOSITION APPLICABLE TO THE SKIN AND BASED ON A VOLATILE MIXTURE OF ALKANES” (BIOSYNTHIS, priority 2022, published 2026)", "test": "Biodegradability by OECD 301F method (manometric respirometry test)", "description": "For the purposes of the present invention, the OECD 301F method makes it possible to assess the biodegradability of a substance by a manometric respirometry test.\nThe biodegradability of a volatile mixture of alkanes used in the cosmetic compositions applicable to the skin according to the invention was measured according to the OECD 301F method. For comparison, the degradation of isododecane (CAS 13475-82-6) was also measured with this method.\nThe OECD 301F method is used to characterize the ease of biodegradation of a substance by a manometric respirometry test."}
{"compound": "CC(CC(C)(C)C)CC(C)(C)C", "note": "[Isododecane (CAS 13475-82-6), 2,2,4,6,6-pentamethylheptane]", "values": [{"measurement": "Percentage of degradation according to the OECD 301F method", "value": 0, "unit": "%"}, {"measurement": "biodegradable according to the OECD 301F method", "setting": "result in words", "value": "not biodegradable"}]}
